Test results taken from patent US20030092683A1, “Use of tetracyclines as neuro-protective agents and for the treatment of parkinson's disease and related disorders” (priority 2001, published 2003).

System: TH-positive (dopaminergic) neurons in the SNpc
Assay: MPTP-induced neuronal death in vivo, TH-positive neurons by immunohistochemistry
Design: species or system C57BL/6 mice
Conditions: for viable TH-positive neurons in the SNpc: MPTP 20 mg/kg x4 on day 3, analysed 7 days after last MPTP, MPTP without minocycline 37% of control
Procedure: On day 3 mice were injected with MPTP (20 mg/kg×4). Seven days following the last injection of MPTP, the brains were analyzed by immun histochemistry to detect and quantify tyrosin hydroxylase (TH)-positive neurons.

`CN(C)c1ccc(O)c2c1C[C@H]1C[C@H]3[C@H](N(C)C)C(O)=C(C(N)=O)C(=O)[C@@]3(O)C(O)=C1C2=O` [minocycline] was tested, and the “viable TH-positive neurons in the SNpc” value (minocycline 90 mg/kg p.o. daily for nine days) was 56 % of control, the “viable TH-positive neurons in the SNpc, treatment after MPTP” value (minocycline 120 mg/kg p.o. beginning 4 h after the last MPTP injection, MPTP without minocycline 36% of control, p<0.05) was 66 % of control and the “viable TH-positive neurons in the SNpc” value (minocycline 120 mg/kg p.o. daily for nine days) was 77 % of control.
